Assay results taken from patent US20250368608A1, “SELECTIVE HDAC6 INHIBITOR” (ROYAL COLLEGE OF SURGEONS IN IRELAND, priority 2021, published 2025).

What follows are compounds tested on JJN3 cell line (assay: Apoptosis assay using JJN3 cell line (annexin V/PI)). Conditions: Homo sapiens, JJN-3; JJN3 cell line, 24 h of treatment.
Assay type: cell-based
Procedure: Apoptosis was assessed by Annexin V/propidium iodide (Biolegend, 640906, Sigma P4170) staining using LSRII Biosciences, Facscanto. Cell viability was detected by CellTiter-Glo® (My Bio, G3582) according to the manufacture's protocol. Mitochondrial membrane potential was measured by adding Tetramethylrhodamine, ethyl ester (TMRE) (Biosciences, T669) at 20 nM for 30 minutes at 37° C. and assessed by flow cytometry with FACS CANTO II. […]

Question: For O=C(CSC1=N[C@@H]2CCCC[C@H]2N1)N1CCOCC1 (racemic) [TTC-01, (±)-trans-2-((2-morpholino-2-oxoethyl)thio)-3a,4,5,6,7,7a-hexahydro-1H-benzo[d]imidazol-3-ium chloride], which IC50 is on record?
Answer: > 10 µM

Question: For O=C(CSC1=N[C@@H]2CCCC[C@H]2N1)N1CCCCC1 (racemic) [TTC-03, (±)-trans-2-((2-oxo-2-(piperidin-1-yl)ethyl)thio)-3a,4,5,6,7,7a-hexahydro-1H-benzo[d]imidazol-3-ium chloride], which IC50 is on record?
Answer: > 10 µM

Question: For CCN(CC)C(=O)CSC1=N[C@@H]2CCCC[C@H]2N1 (racemic) [TTC-04, (±)-trans-2-((2-(diethylamino)-2-oxoethyl)thio)-3a,4,5,6,7,7a-hexahydro-1H-benzo[d]imidazol-3-ium chloride], which IC50 is on record?
Answer: > 10 µM

Question: O=C(CSC1=N[C@@H]2CCCC[C@H]2N1)N1CCSCC1 (racemic) [TTC-05, (±)-trans-2-((2-oxo-2-thiomorpholinoethyl)thio)-3a,4,5,6,7,7a-hexahydro-1H-benzo[d]imidazol-3-ium chloride] was tested. Which IC50 did it give?
Answer: < 10 µM

Question: With CS(=O)(=O)N1CCN(C(=O)CSC2=N[C@@H]3CCCC[C@H]3N2)CC1 (racemic) [TTC-06, (±)-trans-2-((2-(4-(methylsulfonyl)piperazin-1-yl)-2-oxoethyl)thio)-3a,4,5,6,7,7a-hexahydro-1H-benzo[d]imidazol-3-ium chloride] as the compound, how does the IC50 read?
Answer: > 10 µM

Question: How did the IC50 turn out when O=C(CSC1=N[C@@H]2CCCC[C@H]2N1)N1CCN(c2ccccc2)CC1 (racemic) [TTC-07, (±)-trans-2-((2-oxo-2-(4-phenylpiperazin-1-yl)ethyl)thio)-3a,4,5,6,7,7a-hexahydro-1H-benzo[d]imidazol-3-ium chloride] was run?
Answer: > 10 µM

Question: How did the IC50 turn out when CC(C)(C)OC(=O)N1CCN(C(=O)CSC2=N[C@@H]3CCCC[C@H]3N2)CC1 (racemic) [TTC-08, (±)-trans-2-((2-(4-(tert-butoxycarbonyl)piperazin-1-yl)-2-oxoethyl)thio)-3a,4,5,6,7,7a-hexahydro-1H-benzo[d]imidazol-3-ium chloride] was run?
Answer: > 10 µM

Question: For O=C(CSC1=N[C@@H]2CCCC[C@H]2N1)N1CCC(O)CC1 (racemic) [TTC-15, (±)-trans-2-((2-(4-hydroxypiperidin-1-yl)-2-oxoethyl)thio)-3a,4,5,6,7,7a-hexahydro-1H-benzo[d]imidazol-3-ium chloride], which IC50 is on record?
Answer: > 10 µM

Question: Which IC50 does the source give for O=C(O)C1CCN(C(=O)CSC2=N[C@@H]3CCCC[C@H]3N2)CC1 (racemic) [TTC-16, (±)-trans-2-((2-(4-carboxypiperidin-1-yl)-2-oxoethyl)thio)-3a,4,5,6,7,7a-hexahydro-1H-benzo[d]imidazol-3-ium chloride] here?
Answer: > 10 µM

Question: O=C1CN(C(=O)CSC2=N[C@@H]3CCCC[C@H]3N2)CCN1 (racemic) [TTC-17, (±)-trans-2-((2-oxo-2-(3-oxopiperazin-1-yl)ethyl)thio)-3a,4,5,6,7,7a-hexahydro-1H-benzo[d]imidazol-3-ium chloride] was tested. Which IC50 did it give?
Answer: > 10 µM

Question: How did the IC50 turn out when O=C(CSC1=N[C@@H]2CCCC[C@H]2N1)Nc1ccccc1 (racemic) [TTC-18, (±)-trans-2-((2-oxo-2-(phenylamino)ethyl)thio)-3a,4,5,6,7,7a-hexahydro-1H-benzo[d]imidazol-3-ium chloride] was run?
Answer: > 10 µM

Question: How did the IC50 turn out when CCC1CCN(C(=O)CSC2=N[C@@H]3CCCC[C@H]3N2)CC1 (racemic) [TTC-28, (±)-trans-2-((2-(4-ethylpiperidin-1-yl)-2-oxoethyl)thio)-3a,4,5,6,7,7a-hexahydro-1H-benzo[d]imidazol-3-ium chloride] was run?
Answer: > 10 µM

Question: How did the IC50 turn out when CCCC1CCN(C(=O)CSC2=N[C@@H]3CCCC[C@H]3N2)CC1 (racemic) [TTC-29, (±)-trans-2-((2-oxo-2-(4-propylpiperidin-1-yl)ethyl)thio)-3a,4,5,6,7,7a-hexahydro-1H-benzo[d]imidazol-3-ium chloride] was run?
Answer: < 10 µM

Question: Which IC50 does the source give for CC(C)C1CCN(C(=O)CSC2=N[C@@H]3CCCC[C@H]3N2)CC1 (racemic) [TTC-30, (±)-trans-2-((2-(4-isopropylpiperidin-1-yl)-2-oxoethyl)thio)-3a,4,5,6,7,7a-hexahydro-1H-benzo[d]imidazol-3-ium chloride] here?
Answer: > 10 µM

Question: For CC(C)(C)C1CCN(C(=O)CSC2=N[C@@H]3CCCC[C@H]3N2)CC1 (racemic) [TTC-31, (±)-trans-2-((2-(4-(tert-butyl)piperidin-1-yl)-2-oxoethyl)thio)-3a,4,5,6,7,7a-hexahydro-1H-benzo[d]imidazol-3-ium chloride], which IC50 is on record?
Answer: < 10 µM

Question: How did the IC50 turn out when O=C(CSC1=N[C@@H]2CCCC[C@H]2N1)N1CCC(C(F)(F)F)CC1 (racemic) [TTC-32, (±)-trans-2-((2-oxo-2-(4-(trifluoromethyl)piperidin-1-yl)ethyl)thio)-3a,4,5,6,7,7a-hexahydro-1H-benzo[d]imidazol-3-ium chloride] was run?
Answer: < 10 µM

Question: With O=C(CSC1=N[C@@H]2CCCC[C@H]2N1)N1CCC(c2ccccc2)CC1 (racemic) [TTC-33, (±)-trans-2-((2-oxo-2-(4-phenylpiperidin-1-yl)ethyl)thio)-3a,4,5,6,7,7a-hexahydro-1H-benzo[d]imidazol-3-ium chloride] as the compound, how does the IC50 read?
Answer: > 10 µM

Question: CC(=O)NCC1CCN(C(=O)CSC2=N[C@@H]3CCCC[C@H]3N2)CC1 (racemic) [TTC-35, (±)-trans-2-((2-(4-(acetamidomethyl)piperidin-1-yl)-2-oxoethyl)thio)-3a,4,5,6,7,7a-hexahydro-1H-benzo[d]imidazol-3-ium chloride] was tested. Which IC50 did it give?
Answer: < 10 µM

Question: Which IC50 does the source give for Cc1ccccc1N1CCN(C(=O)CSC2=N[C@@H]3CCCC[C@H]3N2)CC1 (racemic) [TTC-36, (±)-trans-2-((2-oxo-2-(4-(o-tolyl)piperazin-1-yl)ethyl)thio)-3a,4,5,6,7,7a-hexahydro-1H-benzo[d]imidazol-3-ium chloride] here?
Answer: > 10 µM

Question: Cc1ccc(N2CCN(C(=O)CSC3=N[C@@H]4CCCC[C@H]4N3)CC2)cc1 (racemic) [TTC-38, (±)-trans-2-((2-oxo-2-(4-(p-tolyl)piperazin-1-yl)ethyl)thio)-3a,4,5,6,7,7a-hexahydro-1H-benzo[d]imidazol-3-ium chloride] was tested. Which IC50 did it give?
Answer: > 10 µM

Question: With CC(=O)N1CCN(C(=O)CSC2=N[C@@H]3CCCC[C@H]3N2)CC1 (racemic) [TTC-40, (±)-trans-2-((-(4-acetylpiperazin-1-yl)-2-oxoethyl)thio)-3a,4,5,6,7,7a-hexahydro-1H-benzo[d]imidazol-3-ium chloride] as the compound, how does the IC50 read?
Answer: > 10 µM

Question: How did the IC50 turn out when O=C(CSC1=N[C@@H]2CCCC[C@H]2N1)N1CCN(C(=O)c2ccccc2)CC1 (racemic) [TTC-41, (±)-trans-2-((2-(4-benzoylpiperazin-1-yl)-2-oxoethyl)thio)-3a,4,5,6,7,7a-hexahydro-1H-benzo[d]imidazol-3-ium chloride] was run?
Answer: > 10 µM

Question: For O=C(CSC1=N[C@@H]2CCCC[C@@H]2N1)N1CCOCC1 [TTC-02, cis-2-((2-morpholino-2-oxoethyl)thio)-3a,4,5,6,7,7a-hexahydro-1H-benzo[d]imidazol-3-ium chloride], which IC50 is on record?
Answer: > 10 µM

Question: With O=C(CSC1=NCCN1)N1CCOCC1 [TTC-09, 2-((2-morpholino-2-oxoethyl)thio)-4,5-dihydro-1H-imidazol-3-ium chloride] as the compound, how does the IC50 read?
Answer: > 10 µM

Question: O=C(CSC1=N[C@@H]2CCCC[C@@H]2N1)N1CCCCC1 [TTC-10, cis-2-((2-oxo-2-(piperidin-1-yl)ethyl)thio)-3a,4,5,6,7,7a-hexahydro-1H-benzo[d]imidazol-3-ium chloride] was tested. Which IC50 did it give?
Answer: > 10 µM

Question: Which IC50 does the source give for O=C(CSC1=N[C@@H]2CCCC[C@@H]2N1)N1CCSCC1 [TTC-11, cis-2-((2-oxo-2-thiomorpholinoethyl)thio)-3a,4,5,6,7,7a-hexahydro-1H-benzo[d]imidazol-3-ium chloride] here?
Answer: > 10 µM

Question: Which IC50 does the source give for CS(=O)(=O)N1CCN(C(=O)CSC2=N[C@@H]3CCCC[C@@H]3N2)CC1 [TTC-12, cis-2-((2-(4-(methylsulfonyl)piperazin-1-yl)-2-oxoethyl)thio)-3a,4,5,6,7,7a-hexahydro-1H-benzo[d]imidazol-3-ium chloride] here?
Answer: > 10 µM

Question: With O=C(CSC1=N[C@@H]2CCCC[C@@H]2N1)N1CCN(c2ccccc2)CC1 [TTC-13, cis-2-((2-oxo-2-(4-phenylpiperazin-1-yl)ethyl)thio)-3a,4,5,6,7,7a-hexahydro-1H-benzo[d]imidazol-3-ium chloride] as the compound, how does the IC50 read?
Answer: > 10 µM

Question: O=C(CSC1=N[C@@H]2CCCC[C@H]2N1)N1CCOCC1 [TTC-19, (+)-(3aR,7aR)-2-((2-morpholino-2-oxoethyl)thio)-3a,4,5,6,7,7a-hexahydro-1H-benzo[d]imidazol-3-ium chloride] was tested. Which IC50 did it give?
Answer: > 10 µM

Question: O=C(CSC1=N[C@H]2CCCC[C@@H]2N1)N1CCOCC1 [TTC-20, (−)-(3aS,7aS)-2-((2-morpholino-2-oxoethyl)thio)-3a,4,5,6,7,7a-hexahydro-1H-benzo[d]imidazol-3-ium chloride] was tested. Which IC50 did it give?
Answer: > 10 µM

Question: For O=C(CSc1nc2ccccc2[nH]1)N1CCOCC1 [TTC-21, 2-((1H-benzo[d]imidazol-2-yl)thio)-1-morpholinoethan-1-one], which IC50 is on record?
Answer: > 10 µM

Question: For O=C(CSc1ncc[nH]1)N1CCOCC1 [TTC-22, 2-((1H-imidazol-2-yl)thio)-1-morpholinoethan-1-one], which IC50 is on record?
Answer: > 10 µM

Question: With O=C(CSc1nc2c([nH]1)CCCC2)N1CCOCC1 [TTC-23, 1-morpholino-2-((4,5,6,7-tetrahydro-1H-benzo[d]imidazol-2-yl)thio)ethan-1-one] as the compound, how does the IC50 read?
Answer: > 10 µM

Question: O=C(CCSC1=N[C@H]2CCCC[C@@H]2N1)N1CCOCC1 [TTC-24, 3-(((3aS,7aS)-3a,4,5,6,7,7a-hexahydro-1H-benzo[d]imidazol-2-yl)thio)-1-morpholinopropan-1-one] was tested. Which IC50 did it give?
Answer: > 10 µM

Question: How did the IC50 turn out when O=C(CCCSC1=N[C@H]2CCCC[C@@H]2N1)N1CCOCC1 [TTC-25, 4-(((3aS,7aS)-3a,4,5,6,7,7a-hexahydro-1H-benzo[d]imidazol-2-yl)thio)-1-morpholinobutan-1-one] was run?
Answer: > 10 µM

Same assay, conditions: JJN3 cells, 24 hr treatment

Question: How did the “cell death by annexin V/PI” value turn out when O=C(CSC1=N[C@@H]2CCCC[C@H]2N1)N1CCOCC1 (racemic) [TTC-01, (±)-trans-2-((2-morpholino-2-oxoethyl)thio)-3a,4,5,6,7,7a-hexahydro-1H-benzo[d]imidazol-3-ium chloride] was run?
Answer: induces cell death

Question: For O=C(CSC1=N[C@@H]2CCCC[C@@H]2N1)N1CCOCC1 [TTC-02, cis-2-((2-morpholino-2-oxoethyl)thio)-3a,4,5,6,7,7a-hexahydro-1H-benzo[d]imidazol-3-ium chloride], which “cell death by annexin V/PI” value is on record?
Answer: does not induce cell death

Question: With O=C(CSc1nc2ccccc2[nH]1)N1CCOCC1 [TTC-21, 2-((1H-benzo[d]imidazol-2-yl)thio)-1-morpholinoethan-1-one] as the compound, how does the “cell death by annexin V/PI” value read?
Answer: reduced activity

Question: How did the “cell death by annexin V/PI” value turn out when O=C(CSc1ncc[nH]1)N1CCOCC1 [TTC-22, 2-((1H-imidazol-2-yl)thio)-1-morpholinoethan-1-one] was run?
Answer: reduced activity

Question: O=C(CSc1nc2c([nH]1)CCCC2)N1CCOCC1 [TTC-23, 1-morpholino-2-((4,5,6,7-tetrahydro-1H-benzo[d]imidazol-2-yl)thio)ethan-1-one] was tested. Which “cell death by annexin V/PI” value did it give?
Answer: reduced activity
